Source: US12297192B2, “Crystal form of pyrimidine sulfonamide compound and preparation method therefor” (WUXI BIOCITY BIOPHARMACEUTICS CO., LTD., priority 2019, dated 2025)
Read-outs that look alike come from different tables or passages of the source.

Columns and labels:
[1] = test system: pulmonary hypertension in SD rats induced by monocrotaline (MCT); assay: In vivo pharmacodynamic evaluation, monocrotaline (MCT)-induced pulmonary hypertension model; settings: for 21-day weight change rate / PCNA positivity rate / Percentage of middle pulmonary artery intima-media thickness / Right ventricular ejection fraction / Right ventricular hypertrophy index / Right ventricular systolic pressure / Right ventricular wall thickness: 21 days, Mean ± SEM, n = 12
Source text: The animal model of pulmonary hypertension in SD rats induced by monocrotaline (MCT) was used in this study to examine the pharmacological effects of the test compound on a rat model of pulmonary hypertension.
• Species: Rat • Strain: Sprague-Dawley • Age at arrival at animal house: 5 weeks • Gender: Male • Animal weight at the start of the experiment: 200-260 g • Number: 88 (81 for pharmacodynamic (PD) and pharmacokinetic (PK) tests and 7 for PK-blank matrix) • Supplier: Shanghai SLAC Experimental Animals Co. • Certificate of the animals: 20170005008695 Other Reagent Information
Solutions of 3 mg/mL Macitentan, 0.1 mg/mL, 0.3 mg/mL and 1 mg/mL the compound of formula (I): an appropriate amount of the compound was weighed and added to a flask with an appropriate volume. PEG 400 of 20% of the total volume was added. Heating and stirring were conducted at 40° C. Tween 80 of 0.5% of the total volume was added. Heating and stirring were conducted at 40° C. Deionized water of 70-75% of the volume was added. Heating and stirring were conducted at 40° C. The pH was adjusted with 5 N NaOH until became clear. Then the pH was reversely adjusted to less than 9 with 6 N HCl and 1 N HCl. The remaining volume was made up with deionized water to achieve the total volume. The final pH was determined (9±0.1).
After the animals had been acclimatized for about 1 week, the animals were randomized into 9 groups according to body weight and the condition of the animal, as shown in Table 15.
Monitoring Indicators Monitoring Indicators in PD Tests • 1) Daily monitoring of the general condition of the animals and their body weights; • 2) Right ventricular function tests: right ventricular ejection fraction (RVEF), right ventricular wall thickness (RVWT); • 3) Hemodynamic tests: right ventricular systolic pressure (RVSP); • 4) Determination of the right ventricular hypertrophy index (RVHI): RV/(LV+SEP); • 5) […] staining to observe PAWT/IHC staining to observe PCNA as the endpoint detection. Monitoring Indicators in PK Tests • 1) Daily monitoring of the general condition of the animals and their body weights; • 2) Plasma: determination of the pharmacokinetic parameters of the compounds in plasma. Test Method B-Mode Ultrasonic Detection of RVEF, RVWT
Rats were anesthetized with 30 mg/mL pentobarbital sodium (2 mL/kg, ip) and RVEF, RVWT were measured using a small animal ultrasound instrument (VEVO-1100).
Rats were anesthetized with 30 mg/mL sodium pentobarbital (2 mL/kg, ip), fixed onto a surgical plate in supine position, and shaved on the neck. A skin incision was made on the neck. The subcutaneous tissue and muscle layer were bluntly dissected. And the left carotid artery and right jugular vein were stripped. A rat-specific right heart catheter (a PE tube with an external diameter of about 1.5 mm and a small arc-shaped curve at the distal end) connected to a pressure transducer and filled with 0.3% heparin sodium solution was inserted into the right external jugular vein. The arc of the pulmonary artery catheter was kept downwards during the operation and the pulmonary artery catheter was threaded towards the right atrium. The pressure waveform was used to judge whether it had reached the heart. The catheter was deflected towards the left and pushed forward into the right ventricle.
The heart was removed. The atria and great vessels were removed. Blotted to dryness with filter paper. The right ventricle was stripped and weighed to calculate RVHI=RV/(LV+SEP).
After euthanasia of the rats, the middle lobe of the right lung was removed, perfused using saline and placed in 4% paraformaldehyde for fixation for the purpose of pathological examination.
All data was entered into an Excel document and expressed as mean (Mean)±standard error of mean (SEM). One-way ANOVA with Dunnett's t test was used to analyze and compare the data of each group. Differences between two groups were compared using the unpaired two-tailed t-test method.

[2] = Pharmacokinetics accompanying the efficacy in the MCT-induced rat model of pulmonary hypertension; assay type: in vivo, SD rats; settings: day 21, mean, n = 3; for MRT inf: read-out: MRT0-inf; for MRT last: read-out: MRT0-last
Experimental: Blood samples were taken before and after dosing on the day of the endpoint, at time points of 0, 0.25, 0.5, 1, 2, 4, 6 and 8 h. The rats were placed in a fixator, 250 μL of blood was collected from the tail vein, transferred to an EP tube with anticoagulant (5-8 μL of 15% EDTA), inverted and shaken, and immediately placed on wet ice for temporary storage. The collected blood samples were placed in centrifugal machines and centrifuged at 4° C., 3000 rpm for 15 min. The plasma was collected after centrifugation and immediately placed on dry ice. After all samples have been collected and transferred to cryopreservation at −80° C. for pharmacokinetic analysis.
Blood samples were collected before and after dosing on day 21 and collected at time points 0, 0.25, 0.5, 1, 2, 4, 6 and 8 h for analysis of plasma drug concentrations of the compound of formula (I) and Macitentan.

[3] = Sprague-Dawley, rat, plasma, po, 1 mg/kg gavage
[4] = Sprague-Dawley, rat, plasma, po, 3 mg/kg gavage
[5] = Sprague-Dawley, rat, plasma, po, 30 mg/kg gavage

## COCCNS(=O)(=O)Nc1ncnc(OCCOc2ncc(Br)cn2)c1-c1ccc2c(c1)OCO2 [Compound of formula (I)]
[1]; 1 mg/kg PO/QD
  21-day weight change rate: 43.33 ± 1.56%
  PCNA positivity rate: 3.6 ± 0.69 %
  Percentage of middle pulmonary artery intima-media thickness: 40.44 ± 1.13 %
  Right ventricular ejection fraction: 58.48 ± 2.11 %
  Right ventricular hypertrophy index: 0.40 ± 0.01
  Right ventricular systolic pressure: 40.72 ± 3.38 mmHg
  Right ventricular wall thickness: 1.16 ± 0.05 mm
[1]; 3 mg/kg PO/QD
  21-day weight change rate: 41.23 ± 3.47%
  PCNA positivity rate: 3.56 ± 0.66 %
  Percentage of middle pulmonary artery intima-media thickness: 35.44 ± 1.55 %
  Right ventricular ejection fraction: 58 ± 1.80 %
  Right ventricular hypertrophy index: 0.38 ± 0.03
  Right ventricular systolic pressure: 36.70 ± 3.81 mmHg
  Right ventricular wall thickness: 1.11 ± 0.05 mm
[1]; 10 mg/kg PO/QD
  21-day weight change rate: 42.04 ± 3.07%
  PCNA positivity rate: 2.85 ± 0.65 %
  Percentage of middle pulmonary artery intima-media thickness: 40.11 ± 1.07 %
  Right ventricular ejection fraction: 59.86 ± 2.29 %
  Right ventricular hypertrophy index: 0.36 ± 0.02
  Right ventricular systolic pressure: 37.82 ± 3.10 mmHg
  Right ventricular wall thickness: 1.10 ± 0.05 mm
[1]; doses of 1, 3 and 10 mg/kg
  Indicators of pulmonary hypertension and right ventricular function (in words): significantly improved
[2]; 1 mg/kg gavage
  AUC0-inf/AUC0-last: 111%
  Tlast: 8.00 h
[2]; 3 mg/kg gavage
  AUC0-inf/AUC0-last: 132%
  AUC(0-inf): 5540 ng·h/mL
  Tlast: 8.00 h
[2]; Sprague-Dawley, rat, plasma, po, 1 mg/kg, 1 mg/kg gavage, read-out: AUC0-inf
  AUC(0-inf): 1410 ng·h/mL
[2]; Sprague-Dawley, rat, plasma, po, 3 mg/kg, 3 mg/kg gavage, read-out: AUC0-inf
  AUC(0-inf): 5230 ng·h/mL
[2]; [3]
  AUC(0-t): 1270 ng·h/mL
  Cmax: 345 nM
  Tmax: 1 h
  half-life: 2.3 h
  MRT inf: 3.64 h
  MRT last: 2.83 h
[2]; [4]
  AUC(0-t): 4220 ng·h/mL
  Cmax: 1120 nM
  Tmax: 1 h
  half-life: 3.64 h
  MRT inf: 5.52 h
  MRT last: 3.04 h

## CCCNS(=O)(=O)Nc1ncnc(OCCOc2ncc(Br)cn2)c1-c1ccc(Br)cc1 [Macitentan, reference compound]
[1]; 30 mg/kg gavage once a day
  21-day weight change rate: 45.75 ± 2.14%
  PCNA positivity rate: 4.43 ± 0.42%
  Percentage of middle pulmonary artery intima-media thickness: 46.56 ± 1.07 %
  Right ventricular ejection fraction: 58.87 ± 1.71 %
  Right ventricular hypertrophy index: 0.36 ± 0.03
  Right ventricular systolic pressure: 38.71 ± 3.52 mmHg
  Right ventricular wall thickness: 1.13 ± 0.04 mm
[2]; 30 mg/kg gavage
  Tlast: 8.00 h
[2]; [5]
  AUC(0-t): 11000 ng·h/mL
  Cmax: 1840 nM
  Tmax: 4.08 h
  MRT last: 4.38 h
